Source: patent US20100152188A1, “Novel Heterocyclic Compounds” (priority 2005, published 2010)

What was measured:
[1] = test system: NCIH460; test: Anti-cancer screen (MTT), NCIH460; type: cell-based; settings: Homo sapiens, NCI-H460, 48 hours with compound, tested at 0.01-100 µM
In short: (§1)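 Five-point dosing (0.01, 0.1, 1, 10, 100 µM) for 48 h, with triplicate wells and a separate zero-time plate. Viability is read by MTT at 570 nm and expressed as percent growth, from which GI50, TGI and LC50 are taken.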

[2] = test system: HCT116; test: Anti-cancer screen (MTT), HCT116; type: cell-based; settings: Homo sapiens, HCT-116, 48 hours with compound, tested at 0.01-100 µM
In short: as §1

[3] = test system: NCIH460, HCT116, MDAMB-231/U 251; test: Anti-cancer screen, mean GI50 over the cell lines; type: cell-based; settings: in µM
In short: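 Growth was scored by MTT absorbance at 570 nm relative to control wells and a pre-treatment T0 reading. Compounds were tested at five final concentrations (0.01–100 µM, triplicate) for 48 h on NCIH460, HCT116 and U251 cells, each plated at 5000 cells/well 24 h before dosing.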

[4] = test system: MDAMB-231/U 251; test: Anti-cancer screen (MTT), MDAMB-231/U 251; type: cell-based; settings: for CC50: 48 h, read-out: MDAMB-231/U 251 LC50; for GI50 / IC (TGI): 48 hours with compound, MTT, tested at 0.01-100 µM
In short: as §1

[5] = test system: HDAC; test: HDAC inhibition; type: biochemical; settings: for HDAC Inhibition 1 μM: compound at 1 μM; for HDAC Inhibition 10 μM: compound at 10 μM

Compound | GI50 [1] [µM] | IC (TGI) [1] [µM] | LC50 [1] [µM] | GI50 [2] [µM] | IC (TGI) [2] [µM] | LC50 (concentration giving 50% net cell kill relative to T0) [2] [µM] | Mean GI50 [3] | CC50 [4] [µM] | GI50 [4] [µM] | IC (TGI) [4] [µM] | HDAC Inhibition 1 μM [5] | HDAC Inhibition 10 μM [5]
O=C(NCc1ccc(C(=O)N2CCN(Cc3ccc4c(c3)OCO4)CC2)cc1)OCc1cccs1 [Example 52, 2-Thienylmethyl(4-{[4-(1,3-benzodioxol-5-ylmethyl)piperazin-1-yl]carbonyl}benzyl)carbamate] | 0.04 | 0.5 | > 100 | 0.4 | 5.8 | > 100 | 0.6 | > 100 | 1.3 | > 100 | 2.2 | 4.1
COC(CNC(=O)c1ccc(CNC(=O)OCc2cccs2)cc1)OC [Example 53, 2-Thienylmethyl (4-{[(2,2-dimethoxyethyl)amino]carbonyl}benzyl)carbamate] | 0.02 | 1 | > 100 | 0.12 | 6.1 | > 100 | 2.4 | > 100 | 7.1 | > 100 | 4.3 | 1.6
CCOC(=O)Cc1csc(NC(=O)c2ccc(CNC(=O)OCc3cccs3)cc2)n1 [Example 54, Ethyl{2-[(4-{[(2-thienylmethyloycarbonyl)amino]methyl}benzoyl)amino]-1,3-thiazol-4-yl}acetate] | 0.05 | 0.8 | 91 | 3 | 9.3 | 97 | 1.1 | > 100 | 0.2 | 62 | 0.6 | 8.1
Nc1cccc(NC(=O)c2ccc(CNC(=O)OCc3cccs3)cc2)c1 [Example 55, 2-Thienylmethyl(4-{[(3-aminophenyl)amino]carbonyl}benzyl)carbamate] | 4 | 40 | > 100 | 18 | > 100 | > 100 | 7 | 45 | 0.07 | 0.6 | 7.41 | 26
O=C(NCc1ccc(C(=O)N2CCN(Cc3ccc4c(c3)OCO4)CC2)cc1)OCc1nccs1 [Example 57, 1,3-Thiazol-2-ylmethyl(4-{[4-(1,3-benzodioxol-5-ylmethyl)piperazin-1-yl]carbonyl}benzyl)carbamate] | 0.4 | 0.9 | > 100 | 7 | > 100 | > 100 | 2.6 | > 100 | 0.4 | 0.9 | −1.94 | −1
O=C(NCc1ccc(C(=O)Nc2nnc(C(F)(F)F)s2)cc1)OCc1nc2ccccc2s1 [Example 58, 1,3-Benzothiazol-2-ylmethyl[4-({[5-(trifluoromethyl)-1,3,4-thiadiazol-2-yl]amino}carbonyl)benzyl]carbamate] | 2 | 7 | > 100 | 20 | > 100 | > 100 | 7.3 | 83 | 0.04 | 0.8 | 0.4 | −11.54
O=C(NCc1ccc(C(=O)Nc2nnc(C(F)(F)F)s2)cc1)OCc1cccs1 [Example 59, 2-Thienylmethyl[4-({[5-(trifluoromethyl)-1,3,4-thiadiazol-2-yl]amino}carbonyl)benzyl]carbamate] | 53 | 95 | > 100 | > 100 | > 100 | > 100 | 63.5 | > 100 | 74 | > 100 | 14.41 | 
O=C(NCc1ccc(C(=O)N2CCC(N3CCCCC3)CC2)cc1)OCC1COc2ccccc2O1 (centres unmarked) [Example 60, 2,3-Dihydro-1,4-benzodioxin-2-ylmethyl[{4-(piperidinopiperidin-1-yl)carbonyl}benzyl]carbamate] | 7 | 83 | > 100 | 65 | > 100 | > 100 | 36 | > 100 | > 100 | > 100 | 1.4 | 
O=C(NCc1ccc(C(=O)Nc2nnc(C3CC3)s2)cc1)OCc1c(F)cc(F)cc1F [Example 63, 2,4,6-Trifluorobenzyl(4-{[(5-cyclopropyl-1,3,4-thiadiazol-2-yl)amino]carbonyl}benzyl)carbamate] | 0.05 | 6 | > 100 | 16 | > 100 | > 100 | 5.52 | > 100 | 0.5 | 5 |  | 0.17
O=C(NCc1ccc(C(=O)Nc2nnc(C(F)(F)F)s2)cc1)OCc1nccs1 [Example 64, 1,3-Thiazol-2-ylmethyl[4-({[5-(trifluoromethyl)-1,3,4-thiadiazol-2-yl]amino}carbonyl)benzyl]carbamate] | > 100 | > 100 | > 100 | > 100 | > 100 | > 100 | >100 | > 100 | > 100 | > 100 | 4.95 | 7.43
O=C(NCc1ccc(C(=O)Nc2nnc(C3CC3)s2)cc1)OCc1nccs1 [Example 65, 1,3-Thiazol-2-ylmethyl(4-{[(5-cyclopropyl-1,3,4-thiadiazol-2-yl)amino]carbonyl}benzyl)carbamate] | 12 | 85 | > 100 | 36 | > 100 | > 100 | 17.67 | > 100 | 5 | 45 | 11.65 | 8.84
O=C(NCc1ccc(C(=O)N2CCN(Cc3ccc4c(c3)OCO4)CC2)cc1)OCc1nc2ccccc2s1 [Example 66, 1,3-Benzothiazol-2-ylmethyl(4-{[4-(1,3-benzodioxol-5-ylmethyl)piperazin-1-yl]carbonyl}benzyl)carbamate] | 1 | > 100 | > 100 | 4.8 | > 100 | > 100 | 3.93 | > 100 | 6 | > 100 | 8.57 | 12.98
O=C(NCc1ccc(C(=O)Nc2nnc(C3CC3)s2)cc1)OCc1nc2ccccc2s1 [Example 67, 1,3-Benzothiazol-2-ylmethyl(4-{[(5-cyclopropyl-1,3,4-thiadiazol-2-yl)amino]carbonyl}benzyl)carbamate] | 3.5 | 9.5 | > 100 | 1.8 | 67 | > 100 | 2.93 | > 100 | 3.5 | 9 | 12.17 | 11.64
O=C(NCc1ccc(C(=O)N2CCN(c3ncccn3)CC2)cc1)OCc1nccs1 [Example 68, 1,3-thiazol-2-ylmethyl{4-[(4-pyrimidin-2-ylpiperazin-1-yl)carbonyl]benzyl}carbamate] | 33 | > 100 | > 100 | 9 | > 100 | > 100 | 14.1 | > 100 | 0.2 | 21 | 11.14 | 5.80
O=C(Nc1ccc(C(=O)NO)o1)OCc1ccccc1 [Example 75, Benzyl{5-[(hydroxyamino)carbonyl]-2-furyl}carbamate] | 100 | > 100 | > 100 | > 100 | > 100 | > 100 | >100 | > 100 | 9 | 85 |  | 6.61
O=C(Nc1ccc(C(=O)NO)cc1)OCC1c2ccccc2-c2ccccc21 [Example 76] | 10 | 82 | > 100 | 7.5 | 65 | > 100 | 6.8 | 90 | 3 | 9 | 50.50 | 75.80
